Results published in US8158317B2, “Azo dye compound, coloring composition, ink sheet for thermal transfer recording, thermal transfer recording method, color toner, ink for inkjet, and color filter” (FUJIFILM Corporation, priority 2006, dated 2012).

Assays:
Format in all cases: physicochemical
[1] = Light stability (lightfastness) of thermal transfer images under Xe light; details: Xe light (17000 lux) for 7 days; density retentiveness ratio to original reflection density 1.0; three ranks
Description: Next, the recorded thermal transfer image-receiving materials were exposed to an Xe light (17000 lux) for 7 days and tested for the light stability (lightfastness) of the images. After the exposure, the status A reflection density of the part originally having a status A reflection density of 1.0 was measured, and the image stability was indicated by the density retentiveness ratio (percentage) to the original reflection density 1.0 before exposure. The samples were evaluated in three ranks, A (from 80% to less than 100%), B (from 60% to less than 80%), and C (less than 60%).

[2] = Maximum absorption wavelength of the absorption spectrum in ethyl acetate solution; details: for Maximum Absorption Wavelength: concentration 1×10^−6 mol/L, optical path length 10 mm; for λmax: stated in the production example
Excerpt: The maximum absorption wavelength of the absorption spectrum in an ethyl acetate solution (concentration 1×10^−6 mol/L; optical path length, 10 mm) of these compounds is shown in Table 1 below.

[3] = Dye solubility when preparing the coating composition for dye-donating layer formation (ink sheet); design: key: A (soluble easily); B (soluble); C (soluble but hardly); details: dye in coating composition with polyvinylbutyral resin, methyl ethyl ketone/toluene (1/1); three ranks
Excerpt: A polyester film (Lumirror, Toray's trade name) having a thickness of 6.0 μm and coated with a thermoplastic acrylic resin (thickness, 1 μm) for heat-resistant lubrication on the back thereof was used as a support. The following coating composition for dye-donating layer formation was applied onto the surface of the support film, in a mode of wire bar coating, thereby forming a coating layer having a dry thickness of 1 μm thereon to give an ink sheet 1.
(Coating Composition for Dye-donating Layer Formation)
Next, ink sheets 2 to 5 of the invention and comparative ink sheets 6 to 8 were formed in the same manner as that for the ink sheet 1 but using the dye shown in Table 2 below in place of Compound (1). In this process, the dye solubility was evaluated in three ranks; A (soluble easily), B (soluble), C (soluble but hardly).

Structure (SMILES)	Lightfastness [1]	Maximum Absorption Wavelength [2] [nm]	Solubility [3]	λmax [2] [nm]
CN(C)C(=O)n1c(/N=N/c2c(C(C)(C)C)nn(C)c2N)nc(C#N)c1C#N [(2)]	A (A (from 80% to less than 100%))	439	A	–
CC(=O)n1c(/N=N/c2c(C(C)(C)C)nn(C)c2N)nc(C#N)c1C#N [(3)]	A (A (from 80% to less than 100%))	452	A	–
Cn1nc(C(C)(C)C)c(/N=N/c2nc(C#N)c(C#N)n2C(=O)c2ccccc2)c1N [(4)]	A (A (from 80% to less than 100%))	454	A	–
COC(=O)n1c(/N=N/c2c(C(C)(C)C)nn(C)c2N)nc(C#N)c1C#N [(5)]	A (A (from 80% to less than 100%))	451	A	–
CC(C)(C)c1nn(-c2ccccc2)c(N)c1/N=N/c1ccc([N+](=O)[O-])cc1 [Comparative Dye 1, reference compound]	B (B (from 60% to less than 80%))	–	B	–
CCN(CC)C(=O)n1c(/N=N/c2ccc(N(CC)CC)cc2NC(C)=O)nc(C#N)c1C#N [Comparative Dye 2, reference compound]	B (B (from 60% to less than 80%))	–	A	–
Cn1nc(C(C)(C)C)c(/N=N/c2nc(C#N)c(C#N)[nH]2)c1N [Comparative Dye 3, reference compound]	C (C (less than 60%))	–	B	432
CCN(CCOc1ccc(C2CCCCC2)cc1)c1ccc(C=C(C#N)C#N)c(C)c1 [Comparative Dye 4, reference compound]	C (C (less than 60%))	–	A	–
CCCCN(CCCC)C(=O)c1ccc2c(c1)C(=O)C(c1nc3ccc(C(C)C)cc3cc1O)C2=O (stereo not drawn) [Comparative Dye 5, reference compound]	A (A (from 80% to less than 100%))	–	B	–
CCN(CC)C(=O)n1c(/N=N/c2c(C(C)(C)C)nn(C)c2N)nc(C#N)c1C#N [Compound (1)]	A (A (from 80% to less than 100%))	438	A	438
